The source of these data is patent US7476383B2, “Antibody selective for DR4 and uses thereof” (The UAB Research Foundation, priority 2000, dated 2009).

Residues, ends and D or L forms follow the SMILES beside them. *: point of attachment. Cbz = O=C(OCc1ccccc1)*; CH2F = FC*

For data set [1], the system named is 2LMP human breast cancer xenografts. As to the kind of experiment: 2LMP breast cancer xenografts in athymic nude mice. Format: in vivo. As to the method: Nude mice were inoculated s.c. with the human breast cancer cell line, 2LMP. Treatment with i.p. doses of 200 μg of 2E12 occurred on days 7, 10, 14, 17, 21, and 24 after tumor cell injection. Animals received i.v. adriamycin (doxorubicin) (6 mg/kg) on days 8, 12, and 16.
Athymic nude mice were injected s.c. with 3×10^7 2LMP cells. […] The growth of tumors was monitored over time. […] Tumor size and regression rates were determined.
Data from 6 independent experiments were analyzed by individual experiment. Treatment combinations were compared with respect to in vivo anti-tumor efficacy, i.e., inhibition of tumor growth, which was measured as three endpoints; extension of tumor doubling times, percentage of tumor regressions, and growth rates over time. The actual number of days at which the tumor doubled in surface area (product of two diameters) relative to baseline on day 7 after tumor cell injection was used in the doubling time analysis. The nonparametric Kruskal-Wallis test was used for median tumor doubling time comparisons between treatments. Fisher's exact test was used to compare the proportions of tumor regressions and relapse-free regressions across treatment groups. To determine if any combination therapy produced significant synergistic inhibition of tumor growth, i.e., more than additive, the growth curves from the serial area measurements were compared using a linear mixed model approach over the first 3 weeks after start of therapy (Lindsey, J. K. Models for Repeated Measurements, pp. 100-142, Oxford, 1993). To test for synergistic effects of the combination therapies, an interaction term was included in the model. If the interaction term was significant and the effect was inhibition of growth at a rate greater than additive then the interaction was considered synergistic.
A total of 166 animals, 10 treatment groups, and 6 independent experiments were included in the aggregate analysis. Treatment combinations were compared with respect to in vivo anti-tumor efficacy. The median tumor doubling times were analyzed using the Kruskal-Wallis test and Fisher's exact test was used to compare the proportions of tumor regressions and relapse-free regressions across treatment groups.

The test system of a further data set is 2LMP xenografts. In words: TUNEL analysis of apoptosis in xenografts. Type of data set: in vivo, athymic nude mice. As to conditions: day 14; untreated 1%. Here is the method: One group of mice was untreated. The xeno grafts were dissected for the study of apoptosis on day 14 after tumor cell injection. The reason for the substantial reduction in treatment intensity compared to our standard treatment protocol was to allow adequate tumor tissue for analysis on day 14. Tunel assay for apoptosis in tumor xenografts was performed as follows. Five-micron paraffin sections of tissue were mounted on Superfrost/Plus slides and heated at 58° C. for 1 h. Tissue sections were deparaffinized in three changes of xylene and rehydrated with one change of absolute ethanol, 95% ethanol, and 70% ethanol, each in 5-min increments. Then, the sections were placed in Tris-buffered saline (0.5M Tris base, 0.15 M NaCl, 0.0002% Triton X-100, pH 7.6). Apoptotic nuclei were detected using an Apop Tag Peroxidase kit (Intergen, Purchase, N.Y.). Proteinase K (20 μg/ml in distilled deionized H2O) was added to the tissue specimens and incubated at room temperature for 15 min. Endogenous peroxidases were quenched with an aqueous solution of 3% hydrogen peroxide for 5 min. […] Approximately 10 random fields were evaluated for percentage of Tunel stained and percentage of intensely stained apoptotic bodies throughout the tissue.

A further data set deals with Jurkat cells. As to the kind of experiment: Jurkat cell viability (ATPLite, MTT, PI exclusion). Type of data set: cell-based, human. To be noted: 50 ng/ml TRA-8 overnight. Here is the method: (§1) Cell viability is determined using (1) the ATPLite kit according to the manufacturer's instructions (Packard Instruments, Meriden, Conn.); (2) the MTT Cell proliferation/viability kit (Sigma); or (3) PI staining of dead cells and analyzed by flow cytometry. At end of culture, cells are stained with 10 μg/ml PI and PI negative cells are gated as viable cells. For analysis of condensed nuclei of hepatocytes, cells are stained with 10 ng/ml […] (Molecular Probes) and analyzed by flow cytometry.

A further data set has as its system MMP-1 and MMP-3. As to the kind of experiment: MMP ELISA of RA synovial cell supernatants. Type of data set: cell-based, human. To be noted: RA synovial cells, overnight. As to the method: Thus, it is possible that TRAIL, like TNF-α, may serve as a pro-inflammatory cytokine. […] The levels of the MMP-1 and MMP-3 in the culture supernatants are determined by the ELISA kits.
A general note: In an ELISA, binding on a coated surface is turned into a signal by an enzyme label.

The next data set relates to NF-κb. In words: Gel-shift assay in RA synovial cells. As to conditions: 50 ng/ml TRAIL, Fas ligand or TRA-8, 20 ng/ml TNF-a. Format: cell-based, human. Here is the method: There is considerable evidence to support the concept that there are close links between the signaling of apoptosis and the signaling of proliferation (45). It has been established that DR5 is able to activate a NF-kb pathway in addition to apoptosis signaling transduction, and that NF-κb activation may be able to transduce an anti-apoptosis signal. Therefore a gel-shift assay is carried out. […] The nuclear extracts are prepared and incubated with the […] [^32P]-labeled oligo-DNA probe. The results are analyzed using the cyclone phospha-imager (TopCount NXT, Packard Instrument Company, CT).

The subject of the next data set is normal human hepatocytes. As to the kind of experiment: Hepatocyte viability (ATPLite). Format: cell-based. From the text:
For 24-hour cell viability assays, fresh normal human hepatocytes in 96-well plates were purchased from In Vitro Technology (Baltimore, Md.). […] For 6-hour viability assays, normal hepatocytes or hepatocellular cancer cells are isolated from fresh surgical specimens collected from UAB Tissue Procurement Center. All reagents for isolation of human hepatocytes including hepatocytes perfusion buffer, digest medium, washing medium, and attachment medium were purchased from Gibco. The tissue slides are digested in the Hepatocyte Digest Medium at 37° C. with shaking (50 rpm) for one hour. The isolated hepatocytes are harvested by low speed centrifugation (50 g, 3 min), and washed with the Hepatocyte Washing Medium six times. Single cell suspension of hepatocytes are cultured in the Attachment Medium containing 10% FCS in 96-well Matrigel plates (BD) for six hours. Non-attached hepatocytes are removed by twice washing with pre-warmed attachment medium.

The test system of a further data set is OA synovial cells. As to the kind of experiment: Apoptosis of primary synovial cells. Format: cell-based, human. To be noted: OA72M cells. The source says: (§2) Cell viability is the percentage of the cpm of treated cells versus the cpm of untreated cells.
(§3) The expression of DR5 on a panel of eight primary cultured synovial cells from patients with RA is compared with that on eight primary cultured synovial cells from patients with osteoarthritis (hereinafter referred to as “OA”). The eight human primary RA synovial cell cultures RA-1014, RA-1016, RA-1021, RA-512, RA-707, RA-811, RA-716, and RA-929 are kindly provided by Dr. M. Ohtsuki (Sankyo Co. Ltd., Tokyo, Japan) and cultured in DMEM supplemented with 10% FCS, penicillin, streptomycin, and glutamine. The […] OA synovial cell primary cell cultures are isolated from the synovial tissues of OA patients by a standard collagenase method and cultured under the same conditions. The passage number of all primary cells is under 10. The expression of DR5 is determined by FACs analysis as described in Example 5.

For the next data set, the system named is RA synovial cells. In words: Apoptosis of primary synovial cells. Format: cell-based, human. To be noted: RA-1014, RA-811, RA-716, RA929; high concentrations (>50 ng/ml).
Text: as §2, §3

In the next data set the target is T1, DR4 (Homo sapiens, UniProt O00220).
T1 construct: fusion protein comprising the extracellular domain of human DR5 or DR4 and the Fc region of human IgG1
In words: ELISA binding to DR4-Ig fusion protein. As to conditions: ELISA plates coated with DR4/hIgG1. Here is the method:
ELISA plates are coated with 2 μg/ml of DR4-Ig or DR5-Ig fusion protein overnight. […] The reactions are developed by TMB substrate buffer and measured by the Benchmark Microplate Reader (BioRad). The Kd values are estimated by the one-site binding model of non-linear regression using GraphPad Prism software (GraphPad Software, San Diego, Calif.).

The test system of a further data set is primary B cells. As to the kind of experiment: Apoptosis by ATPLite, overnight. Format: cell-based, human. As to the method:
as §1
A general note: ATP-based viability assays read luminescence as a measure of living cells.

The test system of data set [2] is Primary peripheral blood T cells. As to the kind of experiment: Apoptosis by ATPLite, overnight. Type of data set: cell-based, human. As to the method:
as §1

Another data set concerns U87, U937 and Molt-4. In words: Apoptosis by ATPLite, overnight. Type of data set: cell-based, human. As to conditions: glioma line U87, hematopoietic lines U937 and Molt-4. As to the method:
as §1

The test system of the next data set is Molt-4 and U937 cells. In words: Apoptosis by ATPLite, overnight. Type of data set: cell-based, human. As to the method:
as §1

Another data set deals with SKW6.4, EB-3, and Raji. As to the kind of experiment: Apoptosis by ATPLite, overnight. Type of data set: cell-based, human. To be noted: B lymphoma lines SKW6.4, EB-3, Raji. As to the method:
as §1

A further data set concerns Daudi. As to the kind of experiment: Apoptosis by ATPLite, overnight. Format: cell-based, human. To be noted: B lymphoma line Daudi. Here is the method: as §1
A further data set concerns Jurkat and CEM-6. In words: Apoptosis by ATPLite, overnight. Format: cell-based, human. Here is the method:
as §1

A further data set concerns Hs683 and U251-MG. As to the kind of experiment: Apoptosis by ATPLite, overnight. Type of data set: cell-based, human. As to conditions: glioma lines Hs683 and U251-MG. Here is the method:
as §1

A further data set has as its system H-9 cells. In words: Apoptosis by ATPLite, overnight. Type of data set: cell-based, human. Here is the method:
as §1

Setting [3] is: aggregate, number of animals (%).

T1 sequence (O00220 24-239 limits assumed): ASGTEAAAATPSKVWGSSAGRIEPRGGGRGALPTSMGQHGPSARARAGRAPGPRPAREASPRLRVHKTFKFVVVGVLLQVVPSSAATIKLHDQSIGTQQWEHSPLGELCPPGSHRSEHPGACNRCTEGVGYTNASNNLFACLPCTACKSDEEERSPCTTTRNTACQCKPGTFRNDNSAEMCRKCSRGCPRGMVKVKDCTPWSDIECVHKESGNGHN

Regarding `COc1cccc2c1C(=O)c1c(O)c3c(c(O)c1C2=O)C[C@@](O)(C(=O)CO)C[C@@H]3O[C@H]1C[C@H](N)[C@H](O)[C@H](C)O1` [Adriamycin, adriamycin], in [1] (setting [3]), the “Complete Regressions No relapse (%)” value is recorded as 0 and the “Complete Regressions Total (%)” value worked out at 0. In data set [1] (individual experiments (FIG. 25-27), animals), the “complete regressions of tumor” value is recorded as “no complete regressions”. In [1] (individual experiments, TRA-8 200 μg i.p. x6, Kruskal-Wallis test), the “inhibition of tumor growth compared to untreated controls” value was “did not differ from controls”. In addition, the “intense TUNEL stained cells” value in the data set on 2LMP xenografts is given as 6%.
`CC(NC(=O)C(NC(=O)OCc1ccccc1)C(C)C)C(=O)NC(CC(=O)O)C(=O)CF` (stereo not drawn) [Z-VAD] (Cbz-Val-Ala-Asp-CH2F; configuration not given here): the “inhibition of TRA-8-induced cell death” value with Jurkat cells is “completely inhibited”.
IL-1b: proinflammatory cytokine: in the data set on MMP-1 and MMP-3, the “production of MMPs” value is reported as “increased”.
In the case of TNF-α, the “production of MMPs” value with MMP-1 and MMP-3 is given as “increased”. For the same molecule, the NF-κb activation result in the data set with NF-κb was “activated in a time-dependent fashion”.
For “TRAIL: soluble recombinant human TRAIL (aa 95 to 281) with FLAG tag, Alexis; used with anti-FLAG crosslinker”, the hepatocytes killed result with normal human hepatocytes (6-hour culture, 500 ng/ml TRAIL) is “Over 20%”; with normal human hepatocytes (24-hour culture, 1 μg/ml, TRAIL plus crosslinker), “more than 80%”. Also, in the data set with normal human hepatocytes (four-hour culture, 1 μg/ml cycloheximide), the “hepatocytes killed in the presence of cycloheximide” value is “greater than 70%”. The susceptibility to apoptosis entry in the data set on OA synovial cells is listed as “completely resistant”; in data set [2], “resistant”; in the data set on Molt-4 and U937 cells, “partially susceptible”; in the data set with SKW6.4, EB-3, and Raji, “very susceptible”; in the data set on Daudi it was “much less susceptible”; in the data set with Jurkat and CEM-6, “highly susceptible”. Besides, in the data set on H-9 cells, the susceptibility to apoptosis entry is given as “resistant”. This molecule registered a cell death with RA synovial cells of about 100%. In the data set with MMP-1 and MMP-3, the “production of MMPs” value is “not associated with increased release”. Moreover, the NF-κb activation entry in the data set with NF-κb is “activated in a time-dependent fashion”. Further, the “binding activity to DR4” value in the data set with DR4 is “bound to DR4”. The apoptosis after treatment entry in the data set on primary B cells is “did not undergo apoptosis”. Moreover, the sensitivity to apoptosis result in the data set with U87, U937 and Molt-4 is recorded as “exhibited sensitivity”; with Hs683 and U251-MG, “resistant”.

B1: Fas ligand: recombinant soluble Fas ligand used with enhancer (protein, UniProt P48023 103-281, looked up)
extracellular domain: QLFHLQKELAELRESTSQMHTASSLEKQIGHPSPPPEKKELRKVAHLTGKSNSRSMPLEWEDTYGIVLLSGVKYKKGGLVINETGLYFVYSKVYFRGQSCNNLPLSHKVYMRNSKYPQDLVMMEGKMMSYCTTGQMWARSSYLGAVFNLTSADHLYVNVSELSLVNFEESQTFFGLYKL
modifications: extracellular domain
notes: recombinant soluble Fas ligand used with enhancer
For B1, the NF-κb activation result with NF-κb is given as “unable to induce NF-κb activation”.
